{"source": "patent US9957236B2", "about": "“Selective inhibitors interfering with fibroblast growth factor receptor and FRS2 interaction for the prevention and treatment of cancer and other diseases” (LIMITED LIABILITY COMPANY “RUSSIAN PHARMACEUTICAL …, priority 2014, dated 2018)", "key": {"[1]": {"system": "FGFR2", "assay": "FGFR phosphorylation in KATO III cells (Western blotting, Wes)", "type": "cell-based", "method": "For assessment of the effect of RPT835 inhibitor characterized in this invention with formula II, stomach cancer cells KATO III, which express FGFR2, were used for FRS2 phosphorylation. FGF-2 in concentration of 1 mg/ml and heparin 10 mg/ml were added to the cells for stimulation of FGFR. RPT835 was added in various concentrations. A part of the cells was left without adding the inhibitor, and a part of the cells—without adding either inhibitor, or stimulating agents (control group).\nTwo standard methods for assessment of the phosphorylation level of FGFR and FRS2: • Western blotting using manual work; • Automatic capillary electrophoresis and immunodetection using automatic system Wes™ (ProteinSimple; SantaClara, Calif.).\nLike in Example 1, stomach cancer cells KATO III strongly expressing FGFR2 were used. A part of cells stimulated FGF-2 in concentration 1 mg/ml and heparin 10 mg/ml. The other part of the cells was left without stimulation. Inhibitor RPT835 in dose 1, 10, 100, 1000 nM was added to cells. The control group left without addition of RPT835.\nThe level of FGFR phosphorylation was assessed using standard Western-blotting and automatic capillary electrophoresis with immune-detection and use of automatic system Wes™ (ProteinSimple; SantaClara, Calif.)."}, "[2]": {"system": "anti-FGF-2 antibody", "assay": "Enzyme-linked immune assay, FGF-2 binding to immobilized anti-FGF-2 antibody", "settings": "concentration of 1 to 1,000 nM", "method": "The next task was to assess influence of inhibitor RPT835 on binding of FGF-2 and FGFR2-Fc. […] In order to exclude unspecific effect of RPT835 on binding, one more enzyme-linked immune assay was carried out, in which the cavities were covered with immobilized anti-FGF-2 antibody. FGF-2±RPT835 in different concentrations is added to the cavities."}, "[3]": {"system": "p44/42(MAPK), Akt, mTOR, p70S6", "assay": "Phosphorylation of intracellular kinases in KATO III cells", "type": "cell-based", "settings": "FGF-2 and heparin", "method": "In order to access the effect of inhibitor RPT835, characterized in his invention by formula II, on phosphorylation of the listed kinases, stomach cancer cells KATO III, which express FGFR2, was used. FGF-2 in concentration 1 mg/ml and heparin 10 mg/ml was added to the cells for stimulation of FGFR. RPT835 was added in various concentrations. Part of the cells left without addition of the inhibitor, and a part of the cells—without addition of both the inhibitor, and stimulating agents (control groups).\nIn order to assess the phosphorylation level, 2 standard methods were used: • Western-blotting using manual work. • Automatic capillary electrophoresis and immune-detection using automatic system Wes™ (ProteinSimple; SantaClara, Calif.)."}, "[4]": {"biological_target": "T1, FGFR1 (Homo sapiens, UniProt P11362)", "T1 construct": "endogenous in cells; host or cells: HUVEC, Caki-1, KATO III", "T1 sequence (P11362 22-822)": "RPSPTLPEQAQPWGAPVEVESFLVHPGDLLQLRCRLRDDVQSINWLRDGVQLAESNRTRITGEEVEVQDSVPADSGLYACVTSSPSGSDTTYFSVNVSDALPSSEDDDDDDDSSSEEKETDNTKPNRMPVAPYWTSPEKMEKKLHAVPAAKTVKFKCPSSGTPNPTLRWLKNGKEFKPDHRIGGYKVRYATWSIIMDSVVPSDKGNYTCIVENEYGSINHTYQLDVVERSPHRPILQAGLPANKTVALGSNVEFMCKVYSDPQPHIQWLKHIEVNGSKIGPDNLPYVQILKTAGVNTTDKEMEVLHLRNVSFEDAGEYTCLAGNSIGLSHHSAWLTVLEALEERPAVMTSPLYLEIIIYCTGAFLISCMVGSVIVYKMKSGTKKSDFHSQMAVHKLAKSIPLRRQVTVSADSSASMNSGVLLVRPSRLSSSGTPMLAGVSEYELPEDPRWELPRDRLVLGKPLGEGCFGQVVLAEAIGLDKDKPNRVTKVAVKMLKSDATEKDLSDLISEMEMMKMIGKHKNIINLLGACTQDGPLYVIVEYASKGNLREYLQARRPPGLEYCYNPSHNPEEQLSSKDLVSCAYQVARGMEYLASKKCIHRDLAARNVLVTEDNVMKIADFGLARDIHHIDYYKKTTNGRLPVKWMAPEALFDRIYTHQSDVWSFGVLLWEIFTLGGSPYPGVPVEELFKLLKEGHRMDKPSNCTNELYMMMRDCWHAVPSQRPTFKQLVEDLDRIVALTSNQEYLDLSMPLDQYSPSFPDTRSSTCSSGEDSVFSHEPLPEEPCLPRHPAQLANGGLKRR", "assay": "FGFR1 phosphorylation in breast cancer cells MDA MB 134", "type": "cell-based", "settings": "MDA MB 134 cells", "excerpt": "The purpose of this research was assessment of specific action of inhibitor RPT835 specified in this invention with formula II, on interaction of […] and FRS2 and assessment of influence on interaction of other types of FGFR and FRS2. For the experiment, 2 cell lines were selected: • stomach cancer KATO III, expressing FGFR2, and • breast cancer MDA MB 134, expressing FGFR1.\nThe research procedure was the same as in the previous examples: the cells were cultivated in presence of RPT835 followed by stimulation with FGF-2 and heparin. The other part of the cells was cultivated in presence of RPT835. Phosphorylation of FGFR1 (in breast cancer cells) and FGFR2 (in stomach cancer cells), and also FRS2a (in the both cell lines) and some intracellular kinases (in breast cancer cells) was assessed using manual and automated Western blotting."}, "[5]": {"assay": "Toxicity assessment in the in vivo studies of Example 13", "settings": "nude mice, 30 mg/kg daily through a stomach tube", "method": "Toxicity of inhibitor RPT835 was assessed in in vivo studies described in Example 13. According to the standard procedure, all undesirable events were assessed, as well as loss of weight by animals, when the inhibitor is used compared to the control group."}, "[6]": {"assay": "Acute toxicity", "type": "in vivo", "settings": "acute administration", "excerpt": "Besides, acute toxicity of inhibitor RPT835 was studied in the following volume in a separate research: • Acute toxicity of the medicine was researched. […] The state of the animals after acute administration testifies of good tolerability of the medicine in doses exceeding the maximal therapeutic ones (about 4.3 mcg/kg) tens—hundreds of times."}, "[7]": {"biological_target": "T2, FRS2α (Homo sapiens, UniProt Q8WU20)", "T2 sequence (Q8WU20 1-508)": "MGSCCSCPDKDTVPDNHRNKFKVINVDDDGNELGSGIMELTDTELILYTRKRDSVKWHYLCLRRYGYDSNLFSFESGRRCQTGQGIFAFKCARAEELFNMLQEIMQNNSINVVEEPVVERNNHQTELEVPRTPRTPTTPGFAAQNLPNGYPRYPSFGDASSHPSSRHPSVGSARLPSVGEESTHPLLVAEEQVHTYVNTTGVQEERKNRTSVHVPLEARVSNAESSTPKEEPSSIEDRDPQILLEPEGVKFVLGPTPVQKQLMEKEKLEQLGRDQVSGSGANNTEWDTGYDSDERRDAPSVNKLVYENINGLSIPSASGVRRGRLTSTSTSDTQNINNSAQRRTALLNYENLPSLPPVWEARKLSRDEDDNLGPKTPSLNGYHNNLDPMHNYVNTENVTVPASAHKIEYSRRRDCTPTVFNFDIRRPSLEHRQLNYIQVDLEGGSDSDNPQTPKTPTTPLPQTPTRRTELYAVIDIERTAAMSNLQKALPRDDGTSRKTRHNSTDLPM", "assay": "FRS2α phosphorylation in SUM-52 cells (Western blotting)", "type": "cell-based", "parameters": "endogenous in cells; host or cells: hFOB", "settings": "SUM-52 (FGFR2 IIIb), RPT835 1 micron, FGF-1 100 ng/ml", "method": "The research assessed the influence of inhibitor RPT835 determined by formula II of this invention, intervention with interaction of FGFR2 represented by two most frequent isoforms IIIb and IIIc with FRS2. For this, human cell line of embryonal osteoblasts (hFOB) expressing only FGFR2 […], and human cell line of breast cancer SUM-52 expressing FGFR2 IIIb (all main versions of isoform—C1, C2, C3) were chosen.\nCells were divided into the groups: • 1a) hFOB • 1b) hFOB, stimulating FGF-1 (100 ng/ml) • 1c) hFOB, cultivation with RPT835 (1 micron) and stimulation of FGF-1 (100 ng/ml) • 2a) SUM-52 • 2b) SUM-52, stimulation of FGF-1 (100 ng/ml) • 2c) SUM-52, cultivation with RPT835 (1 micron) and stimulation of FGF-1 (100 ng/ml)"}}, "data": [{"smiles": "Cc1cc([N+](=O)[O-])c(NS(=O)(=O)c2cccc(C(=O)O)c2)cc1-c1cccnc1", "note": "[RPT835, 3-(N-(4-methyl-2-nitro-5-(pyridin-3-yl)phenyl)sulfamoyl)benzoic acid]", "values": [{"measurement": "phosphorylation of FGFR2 stimulated by FGF-2 (tyrosine kinase activity)", "setting": "[1]; KATO III cells, 1, 10, 100, 1000 nM", "result": "did not have any effect"}, {"measurement": "phosphorylation of general FGFR", "setting": "[1]; KATO III cells, with and without FGF-2 stimulation", "result": "without influence on phosphorylation of general FGFR"}, {"measurement": "binding of FGF-2 with anti-FGF-2 antibody", "setting": "[2]", "result": "did not influence on binding of FGF-2 with anti-FGF-2 antibody"}, {"measurement": "activity (phosphorylation) of p44/42(MAPK), Akt, mTOR, p70S6 compared to cells stimulated only with FGF-2", "setting": "[3]", "result": "did not change"}, {"measurement": "phosphorylation of FGFR1", "setting": "[4]", "result": "did not have influence"}, {"measurement": "weight loss and undesirable side effects of the therapy", "setting": "[5]", "result": "Neither weight loss, nor any undesirable side effects"}, {"measurement": "toxicity class (Hodge; Sidorov)", "setting": "[6]; 14 days observation, necropsy", "result": "IV class of low toxicity"}, {"measurement": "LD50 at 14 days", "setting": "[6]; in vivo, read-out: Median lethal dose (LD50)", "result": "> 2000", "unit": "mg/kg"}, {"measurement": "FRS2α phosphorylation level", "setting": "[7]", "result": "completely suppressed the phosphorylation"}]}]}
